Assay results as given in publication PMC10867212, “Comparative pharmacokinetics of polymyxin B in critically ill elderly patients with extensively drug-resistant gram-negative bacteria infections” (Frontiers in Pharmacology, 2024).
Like-named read-outs stand apart in the source and are kept apart here. Where a SMILES comes first, the peptide text is derived from it. Bridges are numbered along the chain shown (N, C = ends). [ ]: non-standard residue; d: D form. The star is where a group is joined. X1 = CC[C@H](C)CCCCC(=O)*; Dab = NCC[C@H](N)C(=O)O

Tests used:
[1] = Steady-state plasma pharmacokinetics of intravenous polymyxin B in critically ill patients (non-compartmental analysis); assay type: in vivo, human; details: for Normalized AUCss, 0–24 h: AUC adjusted to a daily dose of 1 mg/kg of TBW; for Cmin / Css, avg (average steady-state plasma concentration) / Cmax / AUC(0-t): HPLC-MS/MS; for Tmax: iv infusion of at least 1 h; for half-life: read-out: Half-time time (converted)
Text: All adult patients admitted to the participating intensive care unit (ICU) in a teaching hospital between December 2021 and July 2023 were consecutively screened for entry into this prospective observational study. The ICU served a mixed population of medical, surgical, trauma, and neurologic patients. All critically ill patients (≥18 years) were eligible if they received intravenous PMB for more than 3 days (sulfate; PMB injection, Shanghai First Biochemical Pharmaceutical Co., Ltd., China) for the treatment of documented XDR-GNB infections. Exclusion criteria were 1) patients with anuria or who received blood purification therapy or extracorporeal membrane oxygenation during PMB treatment; 2) pregnant women. Informed written consent was obtained from each patient or a legal representative of the family. This study protocol was approved by the human ethics committees in Shandong Provincial Hospital Affiliated to Shandong First Medical University (protocol SWYX: No. 2021-356) and was carried out in accordance with the Declaration of Helsinki (2000) of the World Medical Association.
Patients were enrolled on the first day of intravenous PMB administration. This study continued for 28 days or until discharge from the hospital or death. According to the patient’s age, the enrolled patients were divided into two groups: the elderly group (≥65 years) and the young group (<65 years).
PMB was administrated intravenously with a loading dose of 2.0–2.5 mg/kg and maintenance doses of 1.25–1.5 mg/kg every 12 h, with at least 1 h infusion time. Calculation of both the loading dose and maintenance dose was based on the total body weight (TBW) of the patient. No dose adjustment was performed in patients with renal insufficiency and renal replacement therapy. Concurrent prescription of other potential nephrotoxic drugs, such as vancomycin, aminoglycoside, etc., was avoided as much as possible at any time during PMB treatment in our study. The initiation of PMB treatment as well as the concomitant antibiotics and their duration were at the discretion of the ICU physicians.
For steady-state PK assessment, blood samples were obtained after at least six doses of PMB. In each patient, six to eight blood samples (3 mL) were collected immediately 10 min before the infusion and 30 min and 1, 2, 3, 6, 8, and 12 h after the beginning of infusion in ethylenediaminetetraacetic acid anticoagulant tubes. Blood samples were immediately centrifuged at 3500 g for 10 min, and the plasma samples were collected and stored at −80°C until analysis. The PMB plasma concentrations were quantified by measuring both polymyxin B1 and B2 using validated high-performance liquid chromatography-tandem mass spectrometry.
The primary outcome was steady-state PMB exposure as reflected by AUCss, 0–24 h. Non-compartmental PK analysis was conducted using Phoenix WinNonlin software 8.3 (Certara, United States). The clinical variables were summarized as means with standard deviation for approximately normally distributed continuous variables or medians with interquartile range for non-normally distributed continuous variables and as frequencies and percentages for categorical variables. The normality of all data sets was determined using the Kolmogorov-Smirnov test. Categorical variables were analyzed by the chi-square or Fisher exact test, while continuous variables were analyzed by the two-tailed non-paired Student’s t-test or Mann-Whitney U test. […] All the analyses were performed with the use of the SPSS for Windows statistical program (version 22.0; IBM Corp., Armonk, NY).

[2] = ref Zavascki et al., 2008; Yun et al., 2015; cited from earlier work
Text: PMB has been reported to accumulate in large quantities in the kidney, much more than in other organs, such as the heart, lungs, and brain. […] Considering that PMB is poorly recovered in urine (less than 1%) ([Zavascki et al., 2008]; [Yun et al., 2015]), it may be filtered from the glomerulus and reabsorbed in the proximal tubule.

[3] = all patients (n = 23), iv 1.25–1.5 mg/kg q12h, steady state, mean ± SD, SD
[4] = elderly group ≥65 years (n = 17), iv 1.25–1.5 mg/kg q12h, steady state, mean ± SD, SD
[5] = young group <65 years (n = 6), iv 1.25–1.5 mg/kg q12h, steady state, mean ± SD, SD

Q: With CC[C@H](C)CCCCC(=O)N[C@@H](CCN)C(=O)N[C@H](C(=O)N[C@@H](CCN)C(=O)N[C@H]1CCNC(=O)[C@H]([C@@H](C)O)NC(=O)[C@H](CCN)NC(=O)[C@H](CCN)NC(=O)[C@H](CC(C)C)NC(=O)[C@@H](Cc2ccccc2)NC(=O)[C@H](CCN)NC1=O)[C@@H](C)O [polymyxin B] (X1-[Dab]T[Dab][Dab][Dab][dF]L[Dab][Dab]T; lactam 4-C) as the compound, how does the “Normalized AUCss, 0–24 h” value ([1]; all patients (n = 23), steady state, mean ± SD, SD) read?
A: The value was 52.31 ± 28.65 mg·h/L.

Q: And the Cmin [1, 3]?
A: Its Cmin is 2990 ± 1990 ng/mL.

Q: What about the “Css, avg (average steady-state plasma concentration)” value (“Css, avg” for short) [1, 3] of the same compound?
A: Its value is 4200 ± 2230 ng/mL.

Q: What about the “Normalized AUCss, 0–24 h” value ([1]; elderly group ≥65 years (n = 17), steady state, mean ± SD, SD) of the same compound?
A: The value was 55.23 ± 28.51 mg·h/L.

Q: And the Cmax [1, 4]?
A: Its Cmax is 9230 ± 2840 ng/mL.

Q: What about the Cmin [1, 4] of the same compound?
A: The Cmin was 3110 ± 1790 ng/mL.

Q: And the “Css, avg” value [1, 4]?
A: The value was 4320 ± 2110 ng/mL.

Q: What about the “Clearance per TBW” value ([1]; elderly group ≥65 years (n = 17), per total body weight, iv, steady state, non-compartmental, mean ± SD, SD) of the same compound?
A: The value was 0.6 ± 0.4 mL/min/kg.

Q: And the AUC(0-t) ([1]; human, elderly group ≥65 years (n = 17), iv 1.25–1.5 mg/kg q12h after loading dose, steady state (≥6 doses), non-compartmental, mean ± SD, SD, read-out: AUCss, 0–12 h)?
A: Its AUC(0-t) is 51800 ± 25300 ng·h/mL.

Q: And the Cmax ([1]; human, iv, all patients (n = 23), iv 1.25–1.5 mg/kg q12h, steady state, mean ± SD, SD, read-out: Cmax)?
A: Its Cmax is 9410 ± 3120 ng/mL.

Q: What about the AUC(0-t) ([1]; human, iv, all patients (n = 23), iv 1.25–1.5 mg/kg q12h, steady state, non-compartmental, mean ± SD, SD, read-out: AUCss, 0–24 h) of the same compound?
A: Its AUC(0-t) is 71900 ± 41800 ng·h/mL.

Q: And the AUC(0-t) ([1]; human, iv, all patients (n = 23), iv 1.25–1.5 mg/kg q12h after loading dose, steady state (≥6 doses), non-compartmental, mean ± SD, SD, read-out: AUCss, 0–12 h)?
A: Its AUC(0-t) is 50300 ± 27000 ng·h/mL.

Q: What about the Tmax ([1]; human, iv, all patients (n = 23), steady state, mean ± SD, SD) of the same compound?
A: The Tmax was 54.6 ± 29.4 min.

Q: What about the clearance ([1]; human, iv, all patients (n = 23), iv, steady state, non-compartmental, mean ± SD, SD, read-out: Clearance (converted)) of the same compound?
A: Its clearance is 41.5 mL/min.

Q: And the Vd ([1]; human, iv, all patients (n = 23), iv, steady state, non-compartmental, mean ± SD, SD, read-out: Volume of distribution)?
A: Its Vd is 24.7 ± 11.7 L.

Q: What about the clearance ([1]; human, iv, all patients (n = 23), per total body weight, iv, steady state, non-compartmental, mean ± SD, SD, read-out: Clearance per TBW (converted)) of the same compound?
A: Its clearance is 0.6 mL/min/kg.

Q: And the Vd ([1]; human, iv, all patients (n = 23), per total body weight, iv, steady state, non-compartmental, mean ± SD, SD, read-out: Volume of distribution per TBW)?
A: The Vd was 0.37 ± 0.17 L/kg.

Q: And the AUC(0-t) ([1]; human, iv, elderly group ≥65 years (n = 17), iv 1.25–1.5 mg/kg q12h, steady state, non-compartmental, mean ± SD, SD, read-out: AUCss, 0–24 h)?
A: The AUC(0-t) was 76200 ± 41800 ng·h/mL.

Q: What about the Tmax ([1]; human, iv, elderly group ≥65 years (n = 17), steady state, mean ± SD, SD) of the same compound?
A: Its Tmax is 56.5 ± 33.6 min.

Q: And the clearance ([1]; human, iv, elderly group ≥65 years (n = 17), iv, steady state, non-compartmental, mean ± SD, SD, read-out: Clearance (converted))?
A: Its clearance is 39.5 mL/min.

Q: What about the half-life ([1]; human, iv, elderly group ≥65 years (n = 17), iv, steady state, non-compartmental, mean ± SD, SD) of the same compound?
A: Its half-life is 673 ± 323 min.

Q: What about the Vd ([1]; human, iv, elderly group ≥65 years (n = 17), iv, steady state, non-compartmental, mean ± SD, SD, read-out: Volume of distribution) of the same compound?
A: The Vd was 25.5 ± 12.9 L.

Q: What about the Vd ([1]; human, iv, elderly group ≥65 years (n = 17), per total body weight, iv, steady state, non-compartmental, mean ± SD, SD, read-out: Volume of distribution per TBW) of the same compound?
A: The Vd was 0.4 ± 0.19 L/kg.

Q: What about the Cmax ([1]; human, iv, young group <65 years (n = 6), iv 1.25–1.5 mg/kg q12h, steady state, mean ± SD, SD, read-out: Cmax) of the same compound?
A: Its Cmax is 9890 ± 4070 ng/mL.

Q: And the AUC(0-t) ([1]; human, iv, young group <65 years (n = 6), iv 1.25–1.5 mg/kg q12h, steady state, non-compartmental, mean ± SD, SD, read-out: AUCss, 0–24 h)?
A: The AUC(0-t) was 59500 ± 43100 ng·h/mL.

Q: And the Tmax ([1]; human, iv, young group <65 years (n = 6), steady state, mean ± SD, SD)?
A: The Tmax was 49.8 ± 15.6 min.

Q: What about the clearance ([1]; human, iv, young group <65 years (n = 6), iv, steady state, non-compartmental, mean ± SD, SD, read-out: Clearance (converted)) of the same compound?
A: The clearance was 47.5 mL/min.

Q: And the half-life ([1]; human, iv, young group <65 years (n = 6), iv, steady state, non-compartmental, mean ± SD, SD)?
A: The half-life was 394 ± 69.6 min.

Q: And the Vd ([1]; human, iv, young group <65 years (n = 6), iv, steady state, non-compartmental, mean ± SD, SD, read-out: Volume of distribution)?
A: The Vd was 22.3 ± 7.6 L.

Q: What about the clearance ([1]; human, iv, young group <65 years (n = 6), per total body weight, iv, steady state, non-compartmental, mean ± SD, SD, read-out: Clearance per TBW (converted)) of the same compound?
A: Its clearance is 0.617 mL/min/kg.

Q: And the Vd ([1]; human, iv, young group <65 years (n = 6), per total body weight, iv, steady state, non-compartmental, mean ± SD, SD, read-out: Volume of distribution per TBW)?
A: Its Vd is 0.29 ± 0.09 L/kg.

Q: What about the “AUCss, 0–24 h (range)” value ([1]; range over the critically ill patients (n = 23), steady state) of the same compound?
A: Its value is 11300 to 151280 ng·h/mL.

Q: And the “Normalized AUCss, 0–24 h” value ([1]; young group <65 years (n = 6), steady state, mean ± SD, SD)?
A: The value was 44.03 ± 30.00 mg·h/L.

Q: And the Cmin [1, 5]?
A: Its Cmin is 2650 ± 2640 ng/mL.

Q: What about the “Css, avg” value [1, 5] of the same compound?
A: Its value is 3880 ± 2750 ng/mL.

Q: What about the Recovery in urine [2] of the same compound?
A: The Recovery in urine was “less than 1%”.
